Series [1] deals with T1, human Glucagon-R (Homo sapiens, UniProt P47871).
T1 construct: expressed in transfected cells
Kind of series: Glucagon receptor assay (cAMP induction, AlphaScreen). The class given is cell-based. To be noted: HEK293 cells expressing the human Glucagon-R, 15 min at 37° C., read-out: GCG-R EC50 in vitro. On the procedure:
The 5′-end primers additionally encoded a near-Kozak consensus sequence to ensure efficient translation. […] 48 hr after transfection, cells were seeded for limited dilution cloning and selected with 1 mg/ml G418 in the culture medium.
On the day of analysis, growth medium was removed and the cells were washed once with […] of the included Assay buffer with IBMX. Cells were incubated in […] Assay buffer/IBMX containing increasing concentrations of test peptides for 15 min at 37° C. Then the peptides/Assay buffer was removed and cells were lysed by addition of […] Lysis buffer pr. well and incubation for at least 10 min at room temperature. From each well […] cell lysate was transferred to a 384-well OptiPlate and mixed with Donor and Acceptor beads and incubated for 1 h at room temperature. The cAMP content was measured on an Envision plate reader.
(In general: Bead proximity is the source of the signal in Alpha formats.)

The nature of series [2]: physchem. To be noted: pH 7.5. On the procedure:
A stock solution of the test peptide (2 mg/ml; determined by measurement of the absorption of the solution at 280 nm, and using the theoretical extension coefficient based on the content of tryptophan and tyrosine in the peptide) in demineralized water adjusted to pH 2.5 with HCl was prepared, and aliquots were diluted 1:1 in 100 mM acetate buffer (pH 4.0) and 100 mM phosphate buffer (pH 7.5), respectively, and loaded in a standard flat-bottom, non-sterile 96-well UV Microplate. The absorbance of samples (single samples, n=1) at 280 and 325 nm was measured in an absorbance-based plate reader, which was preheated to ambient temperature.

A word on the EC50: it is the concentration at which the effect is half-maximal. As a reminder, the solubility is the dissolved amount per volume that the medium holds. High values mean a readily soluble substance, low ones a poorly soluble substance.

Square brackets hold non-standard residues; d marks the D form. Peptide text beside a SMILES is read from it. Dab = NCC[C@H](N)C(=O)O; Aib = CC(C)(N)C(=O)O

T1 sequence (P47871 26-477): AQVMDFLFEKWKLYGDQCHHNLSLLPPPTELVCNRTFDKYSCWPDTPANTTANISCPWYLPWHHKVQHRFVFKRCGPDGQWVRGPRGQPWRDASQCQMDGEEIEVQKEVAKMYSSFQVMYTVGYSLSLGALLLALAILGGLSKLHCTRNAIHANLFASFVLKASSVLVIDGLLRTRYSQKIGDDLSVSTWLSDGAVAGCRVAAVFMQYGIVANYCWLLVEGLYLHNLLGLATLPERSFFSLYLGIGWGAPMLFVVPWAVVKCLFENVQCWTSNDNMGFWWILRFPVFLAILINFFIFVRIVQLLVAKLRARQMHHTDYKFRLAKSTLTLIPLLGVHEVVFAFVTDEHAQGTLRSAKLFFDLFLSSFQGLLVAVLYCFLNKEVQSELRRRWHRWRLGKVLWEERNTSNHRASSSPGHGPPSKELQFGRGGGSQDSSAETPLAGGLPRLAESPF

As for `CC(C)C[C@H](NC(=O)[C@H](Cc1c[nH]c2ccccc12)NC(=O)[C@H](CCCCN)NC(=O)[C@@H](NC(=O)[C@H](Cc1ccccc1)NC(=O)[C@H](CO)NC(=O)[C@H](CCC(=O)O)NC(=O)[C@H](C)NC(=O)[C@H](CCCNC(=N)N)NC(=O)[C@H](C)NC(=O)C(C)(C)NC(=O)[C@H](CC(=O)O)NC(=O)[C@H](CC(C)C)NC(=O)[C@H](Cc1ccc(O)cc1)NC(=O)[C@H](CCCCN)NC(=O)[C@H](CO)NC(=O)[C@H](Cc1ccc(O)cc1)NC(=O)[C@H](CC(=O)O)NC(=O)[C@H](CO)NC(=O)[C@@H](NC(=O)[C@H](Cc1ccccc1)NC(=O)[C@@H](NC(=O)CNC(=O)[C@H](CCC(N)=O)NC(=O)[C@H](C)NC(=O)[C@@H](N)Cc1c[nH]cn1)[C@@H](C)O)[C@@H](C)O)C(C)C)C(=O)N[C@@H](CCC(=O)O)C(=O)N[C@@H](CO)C(=O)N[C@H](C(=O)O)[C@@H](C)O` [Compound 20] (H-HAQGTFTSDYSKYLD[Aib]ARAESFVKWLEST-OH), the half-maximal effective concentration (EC50) in series [1] was found to be 0.24 nM. The same molecule had a solubility in series [2] of at least 1000 µg/mL.
Taken in the same sequence, the figures for `CC(C)C[C@H](NC(=O)[C@H](Cc1c[nH]c2ccccc12)NC(=O)[C@H](CCCCN)NC(=O)[C@@H](NC(=O)[C@H](Cc1ccccc1)NC(=O)[C@H](CO)NC(=O)[C@H](CCC(=O)O)NC(=O)[C@H](C)NC(=O)[C@H](CCCNC(=N)N)NC(=O)[C@H](C)NC(=O)C(C)(C)NC(=O)[C@H](CC(=O)O)NC(=O)[C@H](CC(C)C)NC(=O)[C@H](Cc1ccc(O)cc1)NC(=O)[C@H](CCCCN)NC(=O)[C@H](CO)NC(=O)[C@@H](NC(=O)[C@H](CC(=O)O)NC(=O)[C@H](CO)NC(=O)[C@@H](NC(=O)[C@H](Cc1ccccc1)NC(=O)[C@@H](NC(=O)CNC(=O)[C@H](CCC(N)=O)NC(=O)[C@H](CO)NC(=O)[C@@H](N)Cc1c[nH]cn1)[C@@H](C)O)[C@@H](C)O)C(C)C)C(C)C)C(=O)N[C@@H](CCC(=O)O)C(=O)N[C@@H](CO)C(=O)N[C@H](C(=O)O)[C@@H](C)O` [Compound 23] (H-HSQGTFTSDVSKYLD[Aib]ARAESFVKWLEST-OH) were 0.16 nM and at least 1000 µg/mL.
As to `CC(C)C[C@H](NC(=O)[C@H](Cc1c[nH]c2ccccc12)NC(=O)[C@H](CO)NC(=O)[C@@H](NC(=O)[C@H](Cc1ccccc1)NC(=O)[C@H](CCC(=O)O)NC(=O)[C@H](CCC(=O)O)NC(=O)[C@H](C)NC(=O)[C@H](CCCNC(=N)N)NC(=O)[C@H](C)NC(=O)C(C)(C)NC(=O)[C@H](CC(=O)O)NC(=O)[C@H](CC(C)C)NC(=O)[C@H](Cc1ccc(O)cc1)NC(=O)[C@H](CCCCN)NC(=O)[C@H](CO)NC(=O)[C@H](Cc1ccc(O)cc1)NC(=O)[C@H](CC(=O)O)NC(=O)[C@H](CO)NC(=O)[C@@H](NC(=O)[C@H](Cc1ccccc1)NC(=O)[C@@H](NC(=O)CNC(=O)[C@H](CCC(N)=O)NC(=O)[C@H](CO)NC(=O)[C@@H](N)Cc1c[nH]cn1)[C@@H](C)O)[C@@H](C)O)C(C)C)C(=O)N[C@@H](CCC(=O)O)C(=O)N[C@@H](CCCCN)C(=O)N[C@H](C(=O)O)[C@@H](C)O` [Compound 33] (H-HSQGTFTSDYSKYLD[Aib]ARAEEFVSWLEKT-OH), in series [1], the EC50 was determined as 0.044 nM. Further, the solubility in series [2] was at least 1000 µg/mL.
Consider `CC(C)C[C@H](NC(=O)[C@H](Cc1c[nH]c2ccccc12)NC(=O)[C@H](CCC(=O)O)NC(=O)[C@@H](NC(=O)[C@H](Cc1ccccc1)NC(=O)[C@H](CCCCN)NC(=O)[C@H](CCC(=O)O)NC(=O)[C@H](C)NC(=O)[C@H](CCCNC(=N)N)NC(=O)[C@H](C)NC(=O)C(C)(C)NC(=O)[C@H](CC(=O)O)NC(=O)[C@H](CC(C)C)NC(=O)[C@H](Cc1ccc(O)cc1)NC(=O)[C@H](CCCCN)NC(=O)[C@H](CO)NC(=O)[C@H](Cc1ccc(O)cc1)NC(=O)[C@H](CC(=O)O)NC(=O)[C@H](CO)NC(=O)[C@@H](NC(=O)[C@H](Cc1ccccc1)NC(=O)[C@@H](NC(=O)CNC(=O)[C@H](CCC(N)=O)NC(=O)[C@H](CO)NC(=O)[C@@H](N)Cc1c[nH]cn1)[C@@H](C)O)[C@@H](C)O)C(C)C)C(=O)N[C@@H](CCC(=O)O)C(=O)N[C@@H](CO)C(=O)N[C@H](C(=O)O)[C@@H](C)O` [Compound 34] (H-HSQGTFTSDYSKYLD[Aib]ARAEKFVEWLEST-OH), for which the EC50 in series [1] is 0.028 nM. The molecule further had a solubility in series [2] of at least 1000 µg/mL.
Taken in the same sequence, the figures for `CC(C)C[C@H](NC(=O)[C@H](Cc1c[nH]c2ccccc12)NC(=O)[C@H](C)NC(=O)[C@@H](NC(=O)[C@H](Cc1ccccc1)NC(=O)[C@H](CCC(=O)O)NC(=O)[C@H](CCC(=O)O)NC(=O)[C@H](C)NC(=O)[C@H](CCCNC(=N)N)NC(=O)[C@H](C)NC(=O)C(C)(C)NC(=O)[C@H](CC(=O)O)NC(=O)[C@H](CC(C)C)NC(=O)[C@H](Cc1ccc(O)cc1)NC(=O)[C@H](CCCCN)NC(=O)[C@H](CO)NC(=O)[C@H](Cc1ccc(O)cc1)NC(=O)[C@H](CC(=O)O)NC(=O)[C@H](CO)NC(=O)[C@@H](NC(=O)[C@H](Cc1ccccc1)NC(=O)[C@@H](NC(=O)CNC(=O)[C@H](CCC(N)=O)NC(=O)[C@H](CO)NC(=O)[C@@H](N)Cc1c[nH]cn1)[C@@H](C)O)[C@@H](C)O)C(C)C)C(=O)N[C@@H](CCC(=O)O)C(=O)N[C@@H](CO)C(=O)N[C@H](C(=O)O)[C@@H](C)O` [Compound 35] (H-HSQGTFTSDYSKYLD[Aib]ARAEEFVAWLEST-OH) were 0.014 nM and at least 1000 µg/mL.
Turning to `CC(C)C[C@H](NC(=O)[C@H](Cc1c[nH]c2ccccc12)NC(=O)[C@H](CCCCN)NC(=O)[C@@H](NC(=O)[C@H](Cc1ccccc1)NC(=O)[C@H](CCC(=O)O)NC(=O)[C@H](CCC(=O)O)NC(=O)[C@H](C)NC(=O)[C@H](CCCNC(=N)N)NC(=O)[C@H](C)NC(=O)C(C)(C)NC(=O)[C@H](CC(=O)O)NC(=O)[C@H](CC(C)C)NC(=O)[C@H](Cc1ccc(O)cc1)NC(=O)[C@H](CCCCN)NC(=O)[C@H](CO)NC(=O)[C@H](Cc1ccc(O)cc1)NC(=O)[C@H](CC(=O)O)NC(=O)[C@H](CO)NC(=O)[C@@H](NC(=O)[C@H](Cc1ccccc1)NC(=O)[C@@H](NC(=O)CNC(=O)[C@H](CCC(N)=O)NC(=O)[C@H](CO)NC(=O)[C@@H](N)Cc1c[nH]cn1)[C@@H](C)O)[C@@H](C)O)C(C)C)C(=O)N[C@@H](CCC(=O)O)C(=O)N[C@@H](CCC(=O)O)C(=O)N[C@H](C(=O)O)[C@@H](C)O` [Compound 36] (H-HSQGTFTSDYSKYLD[Aib]ARAEEFVKWLEET-OH), the EC50 in series [1] was 0.01 nM. The molecule also came in with a solubility in series [2] of at least 1000 µg/mL.
Taken in the same sequence, the figures for `CC(C)C[C@H](NC(=O)[C@H](Cc1c[nH]c2ccccc12)NC(=O)[C@H](CCCCN)NC(=O)[C@@H](NC(=O)[C@H](Cc1ccccc1)NC(=O)[C@H](CCC(=O)O)NC(=O)[C@H](CCC(=O)O)NC(=O)[C@H](C)NC(=O)[C@H](CCCNC(=N)N)NC(=O)[C@H](C)NC(=O)C(C)(C)NC(=O)[C@H](CCC(=O)O)NC(=O)[C@H](CC(C)C)NC(=O)[C@H](Cc1ccc(O)cc1)NC(=O)[C@H](CCCCN)NC(=O)[C@H](CO)NC(=O)[C@H](Cc1ccc(O)cc1)NC(=O)[C@H](CC(=O)O)NC(=O)[C@H](CO)NC(=O)[C@@H](NC(=O)[C@H](Cc1ccccc1)NC(=O)[C@@H](NC(=O)CNC(=O)[C@H](CCC(N)=O)NC(=O)[C@H](CO)NC(=O)[C@@H](N)Cc1c[nH]cn1)[C@@H](C)O)[C@@H](C)O)C(C)C)C(=O)N[C@@H](CCC(=O)O)C(=O)N[C@@H](CO)C(=O)N[C@H](C(=O)O)[C@@H](C)O` [Compound 37] (H-HSQGTFTSDYSKYLE[Aib]ARAEEFVKWLEST-OH) were 0.094 nM and at least 1000 µg/mL.
Taken in the same sequence, the figures for `CC(C)C[C@H](NC(=O)[C@H](Cc1c[nH]c2ccccc12)NC(=O)[C@H](CCCCN)NC(=O)[C@@H](NC(=O)[C@H](Cc1ccccc1)NC(=O)[C@H](CCC(=O)O)NC(=O)[C@H](CCC(=O)O)NC(=O)[C@H](C)NC(=O)[C@H](CCCNC(=N)N)NC(=O)[C@H](C)NC(=O)C(C)(C)NC(=O)[C@H](CC(=O)O)NC(=O)[C@H](CC(C)C)NC(=O)[C@H](Cc1ccc(O)cc1)NC(=O)[C@H](CCCCN)NC(=O)[C@H](CO)NC(=O)[C@H](Cc1ccc(O)cc1)NC(=O)[C@H](CC(=O)O)NC(=O)[C@H](CO)NC(=O)[C@@H](NC(=O)[C@H](Cc1ccccc1)NC(=O)[C@@H](NC(=O)CNC(=O)[C@H](Cc1c[nH]cn1)NC(=O)[C@H](CO)NC(=O)[C@@H](N)Cc1c[nH]cn1)[C@@H](C)O)[C@@H](C)O)C(C)C)C(=O)N[C@@H](CCC(=O)O)C(=O)N[C@@H](CO)C(=O)N[C@H](C(N)=O)[C@@H](C)O` [Compound 38] (H-HSHGTFTSDYSKYLD[Aib]ARAEEFVKWLEST-NH2) were 0.0047 nM and at least 1000 µg/mL.
As to `CC(=O)NCC[C@H](NC(=O)[C@H](CO)NC(=O)[C@@H](N)Cc1c[nH]cn1)C(=O)NCC(=O)N[C@H](C(=O)N[C@@H](Cc1ccccc1)C(=O)N[C@H](C(=O)N[C@@H](CO)C(=O)N[C@@H](CC(=O)O)C(=O)N[C@@H](Cc1ccc(O)cc1)C(=O)N[C@@H](CO)C(=O)N[C@@H](CCCCN)C(=O)N[C@@H](Cc1ccc(O)cc1)C(=O)N[C@@H](CC(C)C)C(=O)N[C@@H](CC(=O)O)C(=O)NC(C)(C)C(=O)N[C@@H](C)C(=O)N[C@@H](CCCNC(=N)N)C(=O)N[C@@H](C)C(=O)N[C@@H](CCC(=O)O)C(=O)N[C@@H](CCC(=O)O)C(=O)N[C@@H](Cc1ccccc1)C(=O)N[C@H](C(=O)N[C@@H](CCCCN)C(=O)N[C@@H](Cc1c[nH]c2ccccc12)C(=O)N[C@@H](CC(C)C)C(=O)N[C@@H](CCC(=O)O)C(=O)N[C@@H](CO)C(=O)N[C@H](C(=O)O)[C@@H](C)O)C(C)C)[C@@H](C)O)[C@@H](C)O` [Compound 39] (H-HS[Dab](Ac)GTFTSDYSKYLD[Aib]ARAEEFVKWLEST-OH), the EC50 in series [1] is 0.0044 nM. Also, the solubility in series [2] is at least 1000 µg/mL.

The record behind these values is patent US11795204B2 (Zealand Pharma A/S, priority 2012, dated 2023).
